According to publication PMC2690642 (Journal of neurochemistry, 2008):

Legend:
[1] = molecular target: T1, NR2B-R (regulatory domain of NMDA receptor NR2B subunit) (Rattus norvegicus, UniProt Q00960); test: [14C]spermine filter binding to purified NR2B-R; details: for [14C]Spermine bound to NR2B-R in presence of addition, %: 40 µM [14C]spermine, % of binding with no addition; for Effect of aminoglycoside on spermine binding to NR2B-R: 20 µM [14C]spermine, aminoglycosides 75 to 300 µM (Fig. 10)
[2] = molecular target: T2, NR1-R (regulatory domain of NMDA receptor NR1 subunit) (Rattus norvegicus, UniProt P35439); test: [3H]ifenprodil filter binding to purified NR1-R
[3] = molecular target: T3, NR2A-R (regulatory domain of NMDA receptor NR2A subunit) (Rattus norvegicus, UniProt Q00959); test: [3H]ifenprodil filter binding to purified NR2A-R; details: 0.1 to 0.8 µM [3H]ifenprodil
[4] = molecular target: T1, NR2B-R (regulatory domain of NMDA receptor NR2B subunit); test: [3H]ifenprodil filter binding to purified NR2B-R; details: for [3H]Ifenprodil bound to NR2B-R in presence of addition, %: 0.4 µM [3H]ifenprodil, % of binding with no addition
NR2A-R = NR2A-R (Rattus norvegicus, UniProt Q00959); test: Circular dichroism; assay type: binding
NR1/NR2B receptors [5] = details: read-out: IC50 for ifenprodil inhibition at intact, functional NR1/NR2B receptors; pH 7.6; ref Williams 1993; cited from earlier work
[6] = molecular target: T3, NR2A-R (regulatory domain of NMDA receptor NR2A subunit); test: [14C]spermine filter binding to purified NR2A-R; details: for Effect of aminoglycoside on spermine binding to NR2A-R: 20 µM [14C]spermine, aminoglycosides 75 to 300 µM (Fig. 10)
[7] = molecular target: T2, NR1-R (regulatory domain of NMDA receptor NR1 subunit); test: [14C]spermine filter binding to purified NR1-R; details: for Effect of aminoglycoside on spermine binding to NR1-R: 20 µM [14C]spermine, aminoglycosides 75 to 300 µM (Fig. 10)
NR1-R = NR1-R (Rattus norvegicus, UniProt P35439); test: Circular dichroism; assay type: binding
NR2B-R = NR2B-R (Rattus norvegicus, UniProt P35439+Q00960); test: Circular dichroism; assay type: binding
NR1-R (E181Q) [8] = molecular target: T4, NR1-R (E181Q) (Rattus norvegicus, UniProt P35439, E181Q)
ovalbumin = ovalbumin (Gallus gallus, UniProt P01012); details: control, unrelated protein
NR1-R (E181Q) [9] = molecular target: T4, NR1-R (E181Q); test: biochemical
NR1/NR2A receptors = NR1/NR2A receptors (Rattus norvegicus, UniProt P35439+Q00959); test: Voltage clamp recording in Xenopus oocytes expressing NR1/NR2A
NR1/NR2B receptors [10] = molecular target: NR1/NR2B receptors (Rattus norvegicus, UniProt P35439+Q00960); test: Voltage clamp recording in Xenopus oocytes expressing NR1/NR2B
Sequence of NR1/NR2B receptors (Rattus norvegicus, UniProt P35439+Q00960) (Q00960 27-1482, other chains not shown): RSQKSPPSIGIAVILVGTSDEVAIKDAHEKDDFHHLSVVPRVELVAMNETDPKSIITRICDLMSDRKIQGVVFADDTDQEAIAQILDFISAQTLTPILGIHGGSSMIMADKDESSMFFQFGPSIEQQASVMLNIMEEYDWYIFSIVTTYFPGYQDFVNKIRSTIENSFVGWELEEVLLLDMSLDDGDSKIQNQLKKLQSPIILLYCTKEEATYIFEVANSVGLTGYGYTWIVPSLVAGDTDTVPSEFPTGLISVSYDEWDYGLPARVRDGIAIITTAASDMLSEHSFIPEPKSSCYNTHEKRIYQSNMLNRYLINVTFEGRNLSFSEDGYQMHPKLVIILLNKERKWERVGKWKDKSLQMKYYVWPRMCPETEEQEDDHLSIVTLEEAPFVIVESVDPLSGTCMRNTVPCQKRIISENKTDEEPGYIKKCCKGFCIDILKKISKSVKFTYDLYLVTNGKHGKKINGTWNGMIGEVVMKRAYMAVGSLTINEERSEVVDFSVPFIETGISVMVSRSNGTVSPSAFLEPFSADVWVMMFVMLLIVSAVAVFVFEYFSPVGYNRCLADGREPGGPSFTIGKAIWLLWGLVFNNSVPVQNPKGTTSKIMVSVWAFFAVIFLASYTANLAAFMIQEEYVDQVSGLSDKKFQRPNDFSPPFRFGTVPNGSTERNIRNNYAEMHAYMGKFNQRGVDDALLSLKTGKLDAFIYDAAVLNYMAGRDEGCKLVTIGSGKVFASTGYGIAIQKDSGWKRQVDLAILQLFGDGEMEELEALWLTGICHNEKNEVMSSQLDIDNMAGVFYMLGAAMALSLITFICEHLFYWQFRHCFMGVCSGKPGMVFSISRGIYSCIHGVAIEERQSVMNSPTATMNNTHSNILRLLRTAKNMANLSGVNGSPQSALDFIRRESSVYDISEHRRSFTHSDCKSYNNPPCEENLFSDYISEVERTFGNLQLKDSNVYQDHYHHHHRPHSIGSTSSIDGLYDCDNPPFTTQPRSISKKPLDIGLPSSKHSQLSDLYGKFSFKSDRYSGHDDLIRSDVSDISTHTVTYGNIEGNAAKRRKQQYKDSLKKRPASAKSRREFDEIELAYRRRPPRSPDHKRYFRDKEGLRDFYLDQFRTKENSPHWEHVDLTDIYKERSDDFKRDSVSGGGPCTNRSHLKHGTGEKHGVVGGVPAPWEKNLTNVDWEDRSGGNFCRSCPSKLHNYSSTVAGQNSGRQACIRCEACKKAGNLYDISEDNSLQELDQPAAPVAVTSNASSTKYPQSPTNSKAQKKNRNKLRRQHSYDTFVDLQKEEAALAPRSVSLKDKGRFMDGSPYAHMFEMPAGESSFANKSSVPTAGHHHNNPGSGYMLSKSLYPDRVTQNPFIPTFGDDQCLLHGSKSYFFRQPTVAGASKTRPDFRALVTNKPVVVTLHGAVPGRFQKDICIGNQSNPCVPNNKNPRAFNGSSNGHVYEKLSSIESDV

T1 sequence (Q00960 27-390): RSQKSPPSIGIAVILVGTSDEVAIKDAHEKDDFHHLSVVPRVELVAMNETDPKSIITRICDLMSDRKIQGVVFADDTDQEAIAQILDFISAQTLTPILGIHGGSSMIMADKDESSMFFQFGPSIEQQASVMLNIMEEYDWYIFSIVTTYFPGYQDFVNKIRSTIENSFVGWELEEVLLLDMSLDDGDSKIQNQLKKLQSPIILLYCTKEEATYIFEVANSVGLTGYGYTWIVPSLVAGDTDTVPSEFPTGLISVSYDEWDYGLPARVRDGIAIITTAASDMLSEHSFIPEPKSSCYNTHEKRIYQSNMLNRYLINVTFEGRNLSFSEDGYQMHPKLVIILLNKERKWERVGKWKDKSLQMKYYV
T3 sequence (Q00959 23-389): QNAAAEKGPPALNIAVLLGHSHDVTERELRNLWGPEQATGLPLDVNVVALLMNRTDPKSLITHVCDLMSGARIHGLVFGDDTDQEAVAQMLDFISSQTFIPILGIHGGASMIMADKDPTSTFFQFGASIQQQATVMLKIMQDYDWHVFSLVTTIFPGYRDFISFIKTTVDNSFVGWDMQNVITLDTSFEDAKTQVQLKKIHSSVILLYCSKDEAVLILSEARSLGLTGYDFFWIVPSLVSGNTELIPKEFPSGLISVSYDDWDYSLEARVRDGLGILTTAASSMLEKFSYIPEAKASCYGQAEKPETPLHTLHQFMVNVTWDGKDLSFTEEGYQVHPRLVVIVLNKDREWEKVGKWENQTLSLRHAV
Sequence of NR1/NR2A receptors (Q00959 23-1464, other chains not shown): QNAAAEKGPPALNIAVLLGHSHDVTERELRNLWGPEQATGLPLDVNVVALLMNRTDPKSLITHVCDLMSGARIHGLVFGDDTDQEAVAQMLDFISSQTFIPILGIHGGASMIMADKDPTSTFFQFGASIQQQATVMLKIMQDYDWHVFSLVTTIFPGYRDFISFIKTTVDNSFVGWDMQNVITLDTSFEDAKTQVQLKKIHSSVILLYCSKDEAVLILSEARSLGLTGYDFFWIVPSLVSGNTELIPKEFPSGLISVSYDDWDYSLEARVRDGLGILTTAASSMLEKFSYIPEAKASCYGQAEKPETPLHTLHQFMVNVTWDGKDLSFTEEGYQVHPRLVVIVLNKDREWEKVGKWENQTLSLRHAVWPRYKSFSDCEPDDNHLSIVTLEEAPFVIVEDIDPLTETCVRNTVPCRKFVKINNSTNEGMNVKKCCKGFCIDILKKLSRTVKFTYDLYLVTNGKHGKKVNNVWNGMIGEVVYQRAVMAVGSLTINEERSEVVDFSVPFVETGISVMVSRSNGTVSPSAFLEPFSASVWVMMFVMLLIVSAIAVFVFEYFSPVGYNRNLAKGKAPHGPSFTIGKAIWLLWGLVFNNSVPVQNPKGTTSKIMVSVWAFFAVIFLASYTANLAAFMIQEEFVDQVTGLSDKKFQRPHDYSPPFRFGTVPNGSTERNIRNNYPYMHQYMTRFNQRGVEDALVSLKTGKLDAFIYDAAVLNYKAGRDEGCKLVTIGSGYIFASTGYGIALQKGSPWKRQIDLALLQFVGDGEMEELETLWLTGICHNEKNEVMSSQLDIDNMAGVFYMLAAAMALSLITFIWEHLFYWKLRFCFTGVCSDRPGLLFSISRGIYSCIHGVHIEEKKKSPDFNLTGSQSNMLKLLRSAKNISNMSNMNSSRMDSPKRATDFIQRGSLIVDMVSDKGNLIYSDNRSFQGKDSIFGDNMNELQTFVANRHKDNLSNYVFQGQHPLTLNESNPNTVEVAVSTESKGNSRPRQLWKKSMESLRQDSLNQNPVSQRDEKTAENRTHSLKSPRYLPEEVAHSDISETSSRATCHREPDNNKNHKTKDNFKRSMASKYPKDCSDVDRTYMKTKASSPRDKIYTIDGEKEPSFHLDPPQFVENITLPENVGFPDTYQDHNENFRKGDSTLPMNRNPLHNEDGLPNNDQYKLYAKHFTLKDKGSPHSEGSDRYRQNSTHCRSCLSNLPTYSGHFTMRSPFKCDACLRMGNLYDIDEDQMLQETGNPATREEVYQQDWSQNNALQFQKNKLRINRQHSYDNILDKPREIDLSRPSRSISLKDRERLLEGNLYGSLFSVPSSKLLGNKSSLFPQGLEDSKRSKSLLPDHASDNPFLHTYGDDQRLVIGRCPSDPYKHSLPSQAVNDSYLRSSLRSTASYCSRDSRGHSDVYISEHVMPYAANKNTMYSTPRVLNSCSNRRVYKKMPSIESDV
Sequence of NR2A-R (Q00959 23-389): as the sequence (Q00959 23-389) above
Sequence of NR2B-R (Q00960 27-390, one chain of several): as the sequence (Q00960 27-390) above
Sequence of ovalbumin (P01012 whole entry, species assumed): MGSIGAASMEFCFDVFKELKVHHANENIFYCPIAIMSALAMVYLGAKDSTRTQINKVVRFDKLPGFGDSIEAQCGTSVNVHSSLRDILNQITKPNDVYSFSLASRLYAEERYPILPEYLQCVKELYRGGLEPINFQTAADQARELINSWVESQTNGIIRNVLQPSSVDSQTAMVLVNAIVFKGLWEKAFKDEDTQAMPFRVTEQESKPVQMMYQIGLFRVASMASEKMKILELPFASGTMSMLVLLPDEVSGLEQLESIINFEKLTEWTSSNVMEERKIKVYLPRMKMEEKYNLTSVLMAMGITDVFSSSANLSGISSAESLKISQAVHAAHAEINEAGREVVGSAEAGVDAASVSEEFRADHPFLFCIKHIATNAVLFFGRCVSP

With `CC(C(O)c1ccc(O)cc1)N1CCC(Cc2ccccc2)CC1` (stereo not shown) [ifenprodil] the “[14C]Spermine bound to NR2B-R in presence of addition, %” value (“[14C]Spermine bound to NR2B-R … %” for short) [1] was 108%, the “Bmax of ifenprodil binding, NR1-R” value [2] was 5.6 nmol/mg R domain protein and the “Bmax of ifenprodil binding, NR1-R, equivalent” value [2] was 0.24 mol/mol R domain protein. For the same molecule, the “Hill coefficient for binding of ifenprodil to NR1-R” value [2] was ~1.0, the “Specific binding of [3H]ifenprodil to NR2A-R” value [3] was “no specific binding” and the “Bmax of ifenprodil binding, NR2B-R” value [4] was 5.2 nmol/mg R domain protein. For the same molecule, the “Bmax of ifenprodil binding, NR2B-R, equivalent” value [4] was 0.21 mol/mol R domain protein, the “Hill coefficient for binding of ifenprodil to NR2B-R” value [4] was ~1.0 and the “[3H]Ifenprodil bound to NR2B-R in presence of addition, %” value (“[3H]Ifenprodil bound to NR2B-R … %” below) [4] was 15%. The “Change in the CD spectra of NR2A-R” value (NR2A-R; 2 µM ifenprodil) was “no change” and the IC50 (NR1/NR2B receptors [5]) was 0.34 µM.
For `NC[C@@H]1O[C@H](O[C@H]2[C@@H](O)[C@H](O[C@@H]3[C@@H](O)[C@H](N)C[C@H](N)[C@H]3O[C@H]3O[C@H](CO)[C@@H](O)[C@H](O)[C@H]3N)O[C@@H]2CO)[C@H](N)[C@@H](O)[C@@H]1O` [paromomycin], the “Effect of aminoglycoside on spermine binding to NR2A-R” value (“Effect of aminoglycoside … to NR2A-R” below) [6] was “inhibited”, the “Effect of aminoglycoside on spermine binding to NR2B-R” value (“Effect of aminoglycoside … to NR2B-R” for short) [1] was “inhibited” and the “Effect of aminoglycoside on spermine binding to NR1-R” value (from here on “Effect of aminoglycoside … to NR1-R”) [7] was “inhibited”.
In the case of `NCCCCNCCCN` [Spermidine, spermidine], the “[14C]Spermine bound to NR2B-R … %” value [1] is reported as 6% and the “[3H]Ifenprodil bound to NR2B-R … %” value [4] is reported as 98%.
In the case of `NCC(=O)O` [Glycine, glycine], the “[3H]Ifenprodil bound to NR2B-R … %” value [4] is reported as 102%.
For `NCCCNCCCCNCCCN` [spermine], the “Bmax of spermine binding, NR2A-R, equivalent” value [6] was 0.29 mol/mol R domain, the “Hill coefficient for spermine binding to NR2A-R” value [6] was “close to unity” and the Kd [6] was 140 µM. The “Bmax of spermine binding, NR2A-R” value ([6]; Scatchard plot) was 6.9 nmol/mg R domain protein, the “Affinity for spermine lower at NR2A R domain compared to NR2B R domain” value ([6]; ratio of Kd) was 4 fold and the “Bmax of spermine binding, NR2B-R, equivalent” value [1] was 0.32 mol/mol R domain. The “Hill coefficient for spermine binding to NR2B-R” value [1] was “close to unity”, the “[14C]Spermine bound to NR2B-R … %” value [1] was 7% and the Kd ([1]; Kd of spermine at NR2B-R calculated from k1 and k−1, from rate constants) was 25.9 µM. The “Bmax of spermine binding, NR2B-R” value ([1]; Scatchard plot) was 7.3 nmol/mg R domain protein, the “Dissociation rate constant k−1 of [14C]spermine at NR2B-R” value ([1]; after addition of nonlabeled 3 mM spermine) was 0.22 min⁻¹ and the “Association rate constant k1 of [14C]spermine at NR2B-R” value ([1]; average at 12.5, 25 and 50 µM [14C]spermine) was 8,500 M^−1·min^−1. The “[3H]Ifenprodil bound to NR2B-R … %” value [4] was 99%, the Kd (NR1-R) was 20 µM and the Kd (NR2A-R) was 133 µM. For the same molecule, the Kd (NR2B-R) was 35 µM, the “Binding of spermine to E181Q mutant compared to wild-type NR1-R” value (NR1-R (E181Q) [8]) was “reduced” and the “Binding of spermine to ovalbumin” value (ovalbumin) was “little binding”. For the same molecule, the Kd (NR1-R (E181Q) [9]) was 74 µM, the “Bmax of spermine binding, NR1-R, equivalent” value [7] was 0.24 mol/mol R domain and the “Hill coefficient for spermine binding to NR1-R” value [7] was “close to unity”. For the same molecule, the Kd [7] was 19 µM, the “Bmax of spermine binding, NR1-R” value ([7]; Scatchard plot) was 6.3 nmol/mg R domain protein and the EC50 (NR1/NR2A receptors) was 278 µM. For the same molecule, the “Hill coefficient for spermine at NR1/NR2A” value (NR1/NR2A receptors; oocytes, −20 mV) was 1.17, the EC50 (NR1/NR2B receptors [10]) was 78 µM and the “Hill coefficient for spermine at NR1/NR2B” value (NR1/NR2B receptors [10]; oocytes, −20 mV) was 1.05.
For `N[C@@H](CCC(=O)O)C(=O)O` [Glutamate, glutamate], the “[14C]Spermine bound to NR2B-R … %” value [1] was 102% and the “[3H]Ifenprodil bound to NR2B-R … %” value [4] was 103%.
With kanamycin A the “Effect of aminoglycoside … to NR2A-R” value [6] was “inhibited”, the “Effect of aminoglycoside … to NR2B-R” value [1] was “inhibited” and the “Effect of aminoglycoside … to NR1-R” value [7] was “inhibited”.
For `[H]/N=C(/N)N[C@H]1[C@H](O)[C@@H](O)[C@H](O[C@@H]2O[C@@H](C)[C@](O)(C=O)[C@H]2O[C@@H]2O[C@@H](CO)[C@H](O)[C@@H](O)[C@@H]2NC)[C@@H](N/C(N)=N\[H])[C@@H]1O` [streptomycin], the “Effect of aminoglycoside … to NR2A-R” value [6] was “inhibited”, the “Effect of aminoglycoside … to NR2B-R” value [1] was “inhibited” and the “Effect of aminoglycoside … to NR1-R” value [7] was “inhibited”.
In the case of `NC[C@@H]1O[C@H](O[C@H]2[C@@H](O)[C@H](O[C@@H]3[C@@H](O)[C@H](N)C[C@H](N)[C@H]3O[C@H]3O[C@H](CN)[C@@H](O)[C@H](O)[C@H]3N)O[C@@H]2CO)[C@H](N)[C@@H](O)[C@@H]1O` [neomycin B], the “Effect of aminoglycoside … to NR2A-R” value [6] is reported as “inhibited”, the “Effect of aminoglycoside … to NR2B-R” value [1] is reported as “inhibited” and the “Effect of aminoglycoside … to NR1-R” value [7] is reported as “inhibited”.
